Assay results from US12138369B2, “Magnetically-activated coating for treating biofilms, and associated systems and methods” (priority 2016, dated 2024).
Counter-ions that a name gives are not always drawn.

Experiments:
[1] = tested on: dispersed planktonic bacteria (Pseudomonas aeruginosa PAO1); experiment: Optical density measurements of planktonic bacteria dispersed from biofilm; format: cell-based
Procedure: Optical Density Measurements of Planktonic Bacteria: The planktonic bacteria that had escaped the biofilm via dispersion after the thermal treatment were optically observed to better understand the biofilm's dispersion post-thermal treatment while antibiotics were still present. To estimate the free-swimming bacteria following the antibiotic treatment, the optical density (BioTek Gen5 Microplate Reader, Winooski, Vt., USA) at 600 nm was measured for each well in the second challenge plate. The negative controls in the challenge plate contained only TSB and were used to calculate an average background.
Statistical Analysis: The statistical analysis of both the planktonic optical density reads and the logarithmic CFU counts were reported via their arithmetic mean and standard deviation. […] Statistical analysis was performed in GraphPad Prism 7 using the two-way ANOVA with a confidence interval of 95%.

[2] = tested on: Pseudomonas aeruginosa PAO1 biofilms; experiment: MBEC assay: antibiotic exposure with or without thermal shock, biofilm enumeration; format: cell-based; details: for viable biofilm bacteria after combined treatment: 1 min thermal shock; for effect on biofilm populations: higher concentrations, antibiotic on its own, cannot reliably eliminate
Procedure: Biofilm Growth: Cryogenically preserved Pseudomonas aerugiona PAO1 (15692, American Type Culture Collection, Manassas, Va.) was thawed and streaked on an agar plate (Difco Nutrient Agar, Sparks, Md., USA). The agar plates were inverted and incubated at 37° C. for 24 hours. An inoculum was made by suspending two colony forming units (CFUs) from the agar plate in five milliliters of sterile tryptic soy broth (TSB, BD Bacto, Sparks, Md., USA) made as directed and incubated at 37° C. for 24 hours, achieving an average concentration of 2.12×109±0.07×10^9 CFU/mL. One milliliter of inoculum was then diluted into 15 mL TSB and mixed gently. One hundred fifty microliters of the diluted mixture was then placed into each well of the 96-well plate, except for the negative control wells which received 150 μL of TSB. The plate was part of an MBEC™ assay (Innovotech, Edmonton, AB, Canada) in which a corresponding array of 96 pegs protrudes from the plate lid into the wells, providing a convenient array of substrates for biofilm growth which are then readily transferred to new wells (Harrison et al. 2010). The peg lid was placed onto the 96-well plate then sealed using Parafilm and placed on an orbital shaker table (VWR 1000, 15 mm orbit, Thorofare, N.J., USA) at 160 rpm and incubated at 37° C. for 24 hours.
Antibiotic Preparation: A stock of 5 mg/mL ciprofloxacin in sterile, de-ionized water was prepared with ciprofloxacin hydrochloride (MP Biomedicals, Santa Ana, Calif., USA) and mixed thoroughly. Tobramycin stock was made in a similar fashion by mixing 5 mg/mL tobramycin sulfate salt (Sigma-Aldrich, St. Louis, Mo., USA) in sterile, de-ionized water. Erythromycin was obtained from MP Biomedicals and the stock was prepared by mixing 5 mg/mL erythromycin into ethanol. Each antibiotic mixture was then filter sterilized through a […] PES membrane sterile filter (Millex®GP filter unit) and stored at 2° C. Each antibiotic was then diluted from the stock solution into sterile TSB at an array of concentrations in a 96-well challenge plate used that day.
Antibiotic Exposure: After 24 hr of growth, the array of biofilm-covered pegs was transferred into a 96-well rinse plate (Costar® 96 well flat bottom cell culture, Corning Incorporated, NY, USA) containing 200 μL/well de-ionized, sterile water at ambient temperature for 2 min to remove bacteria not incorporated in the biofilm. The peg lid was then transferred to a 96-well challenge plate of wells containing 200 μL of various concentrations of ciprofloxacin, tobramycin, or erythromycin diluted in TSB. For the antibiotic experiments without thermal shock the peg lid was exposed to a single challenge plate for 24 hours in an incubator at 37° C. before rinsing again for 2 min in a new rinse plate. The peg lid was then transferred to a recovery plate containing 200 μL/well fresh, sterile TSB for resuspension and enumeration.
Antibiotic and Thermal Exposure: To investigate the combined effect of antibiotics and thermal shock, biofilms cultured and exposed to antibiotics as discussed above were removed from their antibiotic challenge plate after only four hours. They were quickly transferred to a challenge plate with the same array of antibiotic concentrations, preheated to the target temperature by a thermostatted water bath. Temperatures of 37° C., 50° C., 60° C., 70° C., and 80° C. were studied at exposure times of 1, 5, and 30 min. The pegs were left in the heated challenge plate for the desired exposure time, then transferred to a new challenge plate with the same antibiotic concentrations at 37° C. and incubated for the remainder of the total 24 hour antibiotic exposure time. Following 24 total hours of antibiotic exposure time the peg lid was rinsed once again for two minutes in a new rinse plate and placed into a recovery plate for resuspension and enumeration. […]

Molecule: CC[C@H]1OC(=O)[C@H](C)[C@@H](O[C@H]2C[C@@](C)(OC)[C@@H](O)[C@H](C)O2)[C@H](C)[C@@H](O[C@@H]2O[C@H](C)C[C@H](N(C)C)[C@H]2O)[C@](C)(O)C[C@@H](C)C(=O)[C@H](C)[C@@H](O)[C@]1(C)O [Erythromycin, erythromycin]
- effect on dispersed planktonic bacteria ([1]; 2 μg/mL): no discernible effect
- effect on dispersed planktonic bacteria ([1]; 64 μg/mL, even without thermal shock): significant reduction in population
- effect on dispersed planktonic bacteria ([1]; 128 μg/mL): further decrease in viable planktonic bacterial cells
- effect on dispersed planktonic bacteria, combined treatment ([1]; with 60° C. thermal shock for 5 min): significantly reduced from the non-thermal-shocked values
- decrease in viable bacteria of biofilms ([2]; 60° C. for 5 min, 64 μg/mL): 1.5 log(CFU/peg)
- decrease in viable bacteria of biofilms ([2]; 60° C. for 5 min, 128 μg/mL): 2.7 log(CFU/peg)
- decrease in viable bacteria of biofilms ([2]; 70° C. for 1 min, 64 μg/mL): 2.3 log(CFU/peg)
- decrease in viable bacteria of biofilms ([2]; 70° C. for 1 min, 128 μg/mL): 6.0 log(CFU/peg)
- effect on biofilms ([2]; any concentration, control temperature 37° C.): no effect
- effect on biofilms ([2]; any concentration, in combination with 50° C. thermal treatments): no effect

Molecule: O=C(O)c1cn(C2CC2)c2cc(N3CCNCC3)c(F)cc2c1=O [Ciprofloxacin, ciprofloxacin hydrochloride]
- effect on dispersed planktonic bacteria ([1]; 0.125, 1.0, and 4.0 μg/mL, OD 600 nm): effective against the planktonic bacteria
- effect on dispersed planktonic bacteria ([1]; higher two concentrations (1.0, 4.0 μg/mL), regardless of thermal shock): killing off almost all the free-swimming bacteria
- effect on biofilms ([2]; 0.125 μg/mL by itself): little effect
- reduction of biofilm populations ([2]; 0.125 μg/mL combined with thermal shock at 60° C. for 5 min): five orders of magnitude
- reduction of biofilm populations ([2]; 0.125 μg/mL combined with thermal shock at 70° C. for 1 min): five orders of magnitude
- viable biofilm bacteria after combined treatment ([2]; 1 μg/mL combined with 70° C.): no viable bacteria
- decrease in viable bacteria of biofilms ([2]; 1 μg/mL, regardless of the heating): at least a five-order magnitude decrease
- decrease in viable bacteria of biofilms ([2]; 4 μg/mL (bloodstream concentration), regardless of the heating): at least a five-order magnitude decrease
- viable biofilm bacteria after combined treatment ([2]; 4 μg/mL combined with 70° C.): no viable bacteria
- effect on biofilm populations [2]: significantly reduce biofilm populations

Molecule: tobramycin sulfate salt
- effect on dispersed planktonic bacteria ([1]; 1.0, 2.0, and 4.0 μg/mL, OD 600 nm): effective against the planktonic bacteria
- effect on dispersed planktonic bacteria ([1]; higher two concentrations (2.0, 4.0 μg/mL), regardless of thermal shock): killing off almost all the free-swimming bacteria
- effect of combined thermal shock and antibiotic on biofilm ([2]; 50° C. for 30 min, 60° C. for 5 min, and 70° C. for 1 min): larger than either treatment by itself
- trend of biofilm mitigation with thermal exposure time ([2]; all non-zero concentrations, regardless of temperature (not at 37° C. control)): prolonged thermal exposure time increasing the overall efficacy of biofilm mitigation
- effect on biofilm populations [2]: significantly reduce biofilm populations
